In patent US9114180B2, “Malodor neutralizing compositions containing acids and alicyclic ketones” (Robertet, Inc., priority 2012, dated 2015):
Values joined by “and” are separate entries in the source; they are usually repeats but may differ in a detail not shown here. Identical values can stand only once.

Experiments:
[1] = Malodor evaluation panel, cat urine on cotton swatches; set-up: key to (Score of Ketone) − (Score of Combination) / (score of citric acid) − (score of combination): difference of malodor scores, 1 = very weak to 7 = very strong (control); settings: for (Score of Ketone) − (Score of Combination) / (score of citric acid) − (score of combination): cat urine malodor, combination with citric acid; for Score of combination 1% + 1% / Score alone 1% (alicyclic ketone): remaining cat urine malodor; for Score of combination 1% + 1%: scale 1-7, ketone 1% + citric acid 1% in spray, average of 14; for Score alone 1% (alicyclic ketone): scale 1 very weak to 7 (control, very strong), ketone 1% in spray, average of 14 panelists
Description: The source of the malodor tested was cat urine. […] A period of three minutes was allowed for the urine to be absorbed by the fabric. Onto each swatch, 3.0 grams of a composition was sprayed. As a control, 3.0 grams of water was sprayed on certain swatches. Each swatch was placed in the middle of a two by two foot (61×61 cm) cubicle and all doors were closed. Actual testing began after thirty minutes. Each member of the panel was asked to sniff the malodor control first and was notified that the control has a rating of 7—indicating very strong malodor. They were then asked to proceed to sniff the other samples and provide a rating for malodor remaining. Thus, the remaining malodor was evaluated on a sliding scale, with 1 being very weak malodor. The panelists were instructed to ignore any fragrance that they may detect and rate only the malodor. […] The fabric spray base was an aqueous solution containing 75% distilled water, 20% ethanol, and 5% of non-ionic surfactant. […] The scores reported are therefore the average of 14 replications. The ionones and irones tested were racemic mixtures of their respective α, β, and γ-isomers. The table sets forth what is believed to be the dominant isomer. Apparent duplications (Tests 5, 6 and 8; Tests 10 and 11) are tests on substances obtained from different sources, and have different mixtures of isomers. […] The ionones tested were mixtures of α, β and γ isomers; the table sets for the dominant isomer.

[2] = Malodor evaluation panel, synthetic bathroom malodor on cotton swatches; settings: for Score of Ketone Alone @ 1%: average of 14; for Score of Combination @ 1% + 1%: ketone 1% + undecylenic acid 1%; for (Score of Acid) − (Score of Combination) / (Score of Ketone) − (Score of Combination): synthetic bathroom malodor; for (Score of Acid) − (Score of Combination): acid = undecylenic acid; for (Score of Ketone) − (Score of Combination): combination with undecylenic acid
[3] = as above
Description: A malodor evaluation panel of 14 persons was assembled and asked to evaluate the odor neutralizing effectiveness of citric acid and dihydro-β-ionone, either alone or in combination. The source of the malodor tested was synthetic bathroom malodor.
Swatches of 100% untreated cotton fabric were cut into 15 cm (6-inch) squares and were placed on weighing boats. 0.5 grams of synthetic bathroom malodor was pipetted onto each of the swatches. A period of three minutes was allowed for the malodor to be absorbed by the fabric.
Onto each swatch, 3.0 grams of a composition was sprayed. As a control, 3.0 grams of water was sprayed on certain swatches.
Each swatch was placed in the middle of a two by two foot (61×61 cm) cubicle and all doors were closed. Actual testing began after thirty minutes.
They were then asked to proceed to sniff the other samples and provide a rating for malodor remaining. Thus, the remaining malodor was evaluated on a sliding scale, with 1 being very weak malodor. The panelists were instructed to ignore any fragrance that they may detect and rate only the malodor.
For the spray compositions containing citric acid or dihydro-β-ionone alone, each spray composition (having a total weight of 20.00 g) consisted of:
For the spray composition containing both citric acid and dihydro-β-ionone, the spray composition (having a total weight of 20.00 g) consisted of:
Neodol 91-8 and the fabric spray base were the same as those described in Example 1.
Each panelist tested citric acid, dihydro-β-ionone, and their combinations. The scores reported are therefore the average of 14 replications.
The results are summarized in Table 6, in which the scores reported are the average of 14 replications.

[4] = Malodor evaluation panel, cigarette smoke on cotton swatches; settings: for (Score of Acid) − (Score of Combination) / (Score of Ketone) − (Score of Combination): cigarette smoke malodor; for Score of Ketone Alone @ 1%: average of 14, Table 3
Description: The source of the malodor tested was cigarette smoke. Swatches of 100% untreated cotton fabric were cut into 15 cm (6-inch) squares and were placed in large plastic containers. Two cigarettes were smoked up inside the plastic containers containing the swatches with closed lids. The environment inside each closed container was allowed to equilibrate for 24 hours. Onto each swatch, 3.0 grams of a composition was sprayed. As a control, 3.0 grams of water was sprayed on certain swatches. Each swatch was placed in the middle of a two by two foot (61×61 cm) cubicle and all doors were closed. Actual testing began after thirty minutes. Each member of the panel was asked to sniff the malodor control first and was notified that the control has a rating of 7—indicating very strong malodor. They were then asked to proceed to sniff the other samples and provide a rating for malodor remaining. Thus, the remaining malodor was evaluated on a sliding scale, with 1 being very weak malodor. The panelists were instructed to ignore any fragrance that they may detect and rate only the malodor. […] Neodol 91-8 and the fabric spray base were the same as those described in Example 1.

[5] = remaining synthetic bathroom malodor, scale 1-7, Table 6
[6] = remaining synthetic bathroom malodor, scale 1-7
[7] = remaining cigarette smoke malodor, scale 1-7
[8] = remaining cigarette smoke malodor, scale 1-7, ketone 1% + citric acid 1%

Compound: CC(=O)CCC1=C(C)CCCC1(C)C [dihydro-β-ionone]
- (Score of Ketone) − (Score of Combination) [1]: 1.40
- (score of citric acid) − (score of combination) [1]: 0.80
- Score of combination 1% + 1% [1]: 2.50
- Score alone 1% (alicyclic ketone) [1]: 3.90
- Score of Ketone Alone @ 1% ([2]; remaining synthetic bathroom malodor, scale 1-7, Table 5): 3.70
- Score of Combination @ 1% + 1% ([3]; remaining synthetic bathroom malodor, scale 1-7, ketone 1% + citric acid 1%): 3.60
- (Score of Acid) − (Score of Combination) ([3]; synthetic bathroom malodor, acid = citric acid): 1.40
- (Score of Ketone) − (Score of Combination) ([3]; synthetic bathroom malodor, combination with citric acid): 0.10

Compound: methyl α-ionone
- Score of Ketone Alone @ 1% [2, 5]: 3.80
- Score of Combination @ 1% + 1% [2, 6]: 3.40
- (Score of Acid) − (Score of Combination) [2]: 1.60
- (Score of Ketone) − (Score of Combination) [2]: 0.40
- (Score of Acid) − (Score of Combination) ([4]; acid = citric acid): 1.10
- (Score of Acid) − (Score of Combination) ([4]; acid = undecylenic acid): 1.40
- (Score of Ketone) − (Score of Combination) ([4]; combination with citric acid): 0.50
- (Score of Ketone) − (Score of Combination) ([4]; combination with undecylenic acid): 0.10
- Score of Ketone Alone @ 1% [4, 7]: 4.20
- Score of Combination @ 1% + 1% [4, 8]: 3.70
- Score of Combination @ 1% + 1% ([4]; remaining cigarette smoke malodor, scale 1-7, ketone 1% + undecylenic acid 1%): 2.80

Compound: CC(C)(C)C1CCCCC1=O (centres unmarked) [2-tert-butylcyclohexanone]
- Score of Ketone Alone @ 1% [2, 5]: 4.50
- Score of Combination @ 1% + 1% [2, 6]: 4.10
- (Score of Acid) − (Score of Combination) [2]: 0.20
- (Score of Ketone) − (Score of Combination) [2]: 0.40

Compound: CCC(=O)/C=C/C1=C(C)CCCC1(C)C [methyl β-ionone]
- (Score of Ketone) − (Score of Combination) [1]: 0.10
- (score of citric acid) − (score of combination) [1]: 0.90
- Score of combination 1% + 1% [1]: 3.40
- Score alone 1% (alicyclic ketone) [1]: 3.50

Compound: CC(=O)/C=C/C1C(C)=CCC(C)C1(C)C (stereo not drawn) [α-irone]
- (Score of Ketone) − (Score of Combination) [1]: 0.20
- (score of citric acid) − (score of combination) [1]: 0.00
- Score of combination 1% + 1% [1]: 3.70
- Score alone 1% (alicyclic ketone) [1]: 3.90

Compound: CCC(=O)C=CC1C(C)=CCCC1(C)C (centres unmarked) [1-(2,6,6-trimethyl-2-cyclohexen-1-yl)pent-1-en-3-one]
- Score of Ketone Alone @ 1% [2, 5]: 2.80
- Score of Combination @ 1% + 1% [2, 6]: 2.70
- (Score of Acid) − (Score of Combination) [2]: 2.50
- (Score of Ketone) − (Score of Combination) [2]: 0.10

Compound: CC(=O)/C=C/C1C(C)=CCCC1(C)C (stereo not drawn) [α-ionone]
- (Score of Ketone) − (Score of Combination) [1]: 1.10
- (score of citric acid) − (score of combination) [1]: 0.10
- Score of combination 1% + 1% [1]: 3.10
- Score alone 1% (alicyclic ketone) [1]: 4.20

Compound: citric acid
- Score of Citric Acid @ 1% ([4]; remaining cigarette smoke malodor, scale 1-7, citric acid alone, in the test of that line): 3.90 and 4.80
- Score of Citric Acid @ 1% ([3]; remaining synthetic bathroom malodor, scale 1-7, citric acid alone): 5.00

Compound: CC(=O)/C=C/C1=C(C)CCCC1(C)C [β-ionone]
- (Score of Ketone) − (Score of Combination) [1]: 0.70
- (score of citric acid) − (score of combination) [1]: 1.00
- Score of combination 1% + 1% [1]: 3.10
- Score alone 1% (alicyclic ketone) [1]: 3.80
- Score of Ketone Alone @ 1% [2, 5]: 4.60
- Score of Combination @ 1% + 1% [2, 6]: 3.30
- (Score of Acid) − (Score of Combination) [2]: 1.80
- (Score of Ketone) − (Score of Combination) [2]: 1.30

Compound: CCC(C)(C)C1CCC(=O)CC1 [4-tert-pentylcyclohexanone]
- (Score of Ketone) − (Score of Combination) [1]: 0.60
- (score of citric acid) − (score of combination) [1]: 0.50
- Score of combination 1% + 1% [1]: 2.90
- Score alone 1% (alicyclic ketone) [1]: 3.50
- (Score of Acid) − (Score of Combination) ([4]; acid = citric acid): 0.80
- (Score of Ketone) − (Score of Combination) ([4]; combination with citric acid): 0.30
- Score of Ketone Alone @ 1% [4, 7]: 3.40
- Score of Combination @ 1% + 1% [4, 8]: 3.10

Compound: C=CCCCCCCCCC(=O)O [undecylenic acid]
- Score of Undecylenic Acid @ 1% ([2]; remaining synthetic bathroom malodor, scale 1-7, undecylenic acid alone, in the test of that line): 5.00 and 4.30 and 5.10 and 5.20
- Score of Undecylenic Acid @ 1% ([4]; remaining cigarette smoke malodor, scale 1-7, undecylenic acid alone): 4.20
